Assay results taken from patent publication US6479435B1, “Diaryl ethers and processes for their preparation and herbicidal and desiccant compositions containing them” (ISK Americas Incorporated, priority 1997, dated 2002).

Key:
Format in all cases: in vivo
[1] = test system: Johnsongrass (Sorghum halepense, SORHA); assay: Pre-emerge greenhouse herbicide test, phytotoxicity rating; details: 14 days after application, rating scale 0-100
In short: (§1)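 Visual 0–100 injury rating (100 = all plants dead) taken 14 days after treatment. Rates of 125–1000 g ai/ha in acetone, 187 l/ha, were sprayed onto soil one day post-sowing; pots were surface-watered to incorporate, then bottom-watered.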

[2] = test system: barnyardgrass (Echinochloa crusgalli, ECHCG); assay: as above; details: 14 days after application, rating scale 0-100
In short: as §1

[3] = test system: common ragweed (Ambrosia artemisiifolia L., AMBEL); assay: as above; details: 14 days after application, rating scale 0-100
In short: as §1

[4] = test system: green foxtail (Setaria viridis, SETVI); assay: as above; details: 14 days after application, rating scale 0-100
In short: as §1

[5] = test system: ivyleaf morningglory (Ipomoea hederacea, IPOHE); assay: as above; details: 14 days after application, rating scale 0-100
In short: as §1

[6] = test system: lambsquarters (Chenopodium album, CHEAL); assay: as above; details: 14 days after application, rating scale 0-100
In short: as §1

[7] = test system: large crabgrass (Digitaria sanguinalis, DIGSA); assay: as above; details: 14 days after application, rating scale 0-100
In short: as §1

[8] = test system: redroot pigweed (Amaranthus retroflexus, AMARE); assay: as above; details: 14 days after application, rating scale 0-100
In short: as §1

[9] = test system: sicklepod (Cassia obtusifolia, CASOB); assay: as above; details: 14 days after application, rating scale 0-100
In short: as §1

[10] = test system: velvetleaf (Abutilon theophrasti, ABUTH); assay: as above; details: 14 days after application, rating scale 0-100
In short: as §1

[11] = test system: field corn (Zea mays L., var. Dekalb 535, CORN); assay: Pre-emerge greenhouse test, crop damage rating; details: 14 days after application, rating scale 0-100
In short: as §1

[12] = test system: upland rice (Oryza sp., var.Tebonnet, RICE); assay: Pre-emerge greenhouse test, crop damage rating; details: 14 days after application, rating scale 0-100
In short: as §1

[13] = test system: soybean (Glycine max L., var. Pella 86, SOY); assay: Pre-emerge greenhouse test, crop damage rating; set-up: key to SOY crop damage rating: 0 = no damage, 100 = complete death of all plants; details: 14 days after application, rating scale 0-100
In short: as §1

[14] = test system: common ragweed (Ambrosia artemisiifolia L., AMBEL); assay: Post-emerge greenhouse herbicide test, phytotoxicity rating; details: 14 days after application, scale 0-100
In short: (§2)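 Scores use a 0 (no damage) to 100 (complete kill) scale, taken 14 days after a foliar spray. Acetone solutions with 0.25% v/v non-ionic surfactant were applied by track sprayer at 187 l/ha and 63-1000 g ai/ha to bottom-watered 2-3 leaf plants.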

[15] = test system: Johnsongrass (Sorghum halepense, SORHA); assay: as above; details: 14 days after application, scale 0-100
In short: as §2

[16] = test system: barnyardgrass (Echinochloa crusgalli, ECHCG); assay: as above; details: 14 days after application, scale 0-100
In short: as §2

[17] = test system: green foxtail (Setaria viridis, SETVI); assay: as above; details: 14 days after application, scale 0-100
In short: as §2

[18] = test system: ivyleaf morningglory (Ipomoea hederacea, IPOHE); assay: as above; details: 14 days after application, scale 0-100
In short: as §2

[19] = test system: lambsquarters (Chenopodium album, CHEAL); assay: as above; details: 14 days after application, scale 0-100
In short: as §2

[20] = test system: large crabgrass (Digitaria sanguinalis, DIGSA); assay: as above; details: 14 days after application, scale 0-100
In short: as §2

[21] = test system: redroot pigweed (Amaranthus retroflexus, AMARE); assay: as above; details: 14 days after application, scale 0-100
In short: as §2

[22] = test system: sicklepod (Cassia obtusifolia, CASOB); assay: as above; details: 14 days after application, scale 0-100
In short: as §2

[23] = test system: velvetleaf (Abutilon theophrasti, ABUTH); assay: as above; details: 14 days after application, scale 0-100
In short: as §2

[24] = test system: field corn (Zea mays L., var. Dekalb 535, CORN); assay: Post-emerge greenhouse test, crop damage rating; details: 14 days after application, scale 0-100
In short: as §2

[25] = test system: upland rice (Oryza sp., var.Tebonnet, RICE); assay: Post-emerge greenhouse test, crop damage rating; details: 14 days after application, scale 0-100
In short: as §2

[26] = test system: soybean (Glycine max L., var. Pella 86, SOY); assay: Post-emerge greenhouse test, crop damage rating; set-up: key to crop damage rating SOY: 0-100 scale: 0 = no damage, 100 = complete death of all plants; details: 14 days after application, scale 0-100
In short: as §2

O=c1n(-c2cc(Oc3cccc(F)n3)c(Cl)cc2F)c(=S)n2n1CCCC2 [Compound 8-25]
SORHA phytotoxicity rating ([1]; Rate 125 g al/ha): 70
SORHA phytotoxicity rating ([1]; Rate 500 g al/ha): 90
ECHCG phytotoxicity rating ([2]; Rate 125 g al/ha): 40
ECHCG phytotoxicity rating ([2]; Rate 500 g al/ha): 100
AMBEL phytotoxicity rating ([3]; Rate 125 g al/ha): 40
AMBEL phytotoxicity rating ([3]; Rate 500 g al/ha): 90
SETVI phytotoxicity rating ([4]; Rate 125 g al/ha): 100
SETVI phytotoxicity rating ([4]; Rate 500 g al/ha): 100
IPOHE phytotoxicity rating ([5]; Rate 125 g al/ha): 20
IPOHE phytotoxicity rating ([5]; Rate 500 g al/ha): 20
CHEAL phytotoxicity rating ([6]; Rate 125 g al/ha): 100
CHEAL phytotoxicity rating ([6]; Rate 500 g al/ha): 100
DIGSA phytotoxicity rating ([7]; Rate 125 g al/ha): 85
DIGSA phytotoxicity rating ([7]; Rate 500 g al/ha): 100
AMARE phytotoxicity rating ([8]; Rate 125 g al/ha): 100
AMARE phytotoxicity rating ([8]; Rate 500 g al/ha): 100
CASOB phytotoxicity rating ([9]; Rate 125 g al/ha): 70
CASOB phytotoxicity rating ([9]; Rate 500 g al/ha): 100
ABUTH phytotoxicity rating ([10]; Rate 125 g al/ha): 100
ABUTH phytotoxicity rating ([10]; Rate 500 g al/ha): 100
CORN crop damage rating ([11]; Rate 125 g al/ha): 0
CORN crop damage rating ([11]; Rate 500 g al/ha): 40
RICE crop damage rating ([12]; Rate 125 g al/ha): 15
RICE crop damage rating ([12]; Rate 500 g al/ha): 70
SOY crop damage rating ([13]; Rate 125 g al/ha): 0
SOY crop damage rating ([13]; Rate 500 g al/ha): 20
phytotoxicity rating AMBEL ([14]; rate 63 g ai/ha): 90
phytotoxicity rating AMBEL ([14]; rate 500 g ai/ha): 90
phytotoxicity rating SORHA ([15]; rate 63 g ai/ha): 40
phytotoxicity rating SORHA ([15]; rate 500 g ai/ha): 60
phytotoxicity rating ECHCG ([16]; rate 63 g ai/ha): 20
phytotoxicity rating ECHCG ([16]; rate 500 g ai/ha): 65
phytotoxicity rating SETVI ([17]; rate 63 g ai/ha): 80
phytotoxicity rating SETVI ([17]; rate 500 g ai/ha): 95
phytotoxicity rating IPOHE ([18]; rate 63 g ai/ha): 100
phytotoxicity rating IPOHE ([18]; rate 500 g ai/ha): 100
phytotoxicity rating CHEAL ([19]; rate 63 g ai/ha): 90
phytotoxicity rating CHEAL ([19]; rate 500 g ai/ha): 100
phytotoxicity rating DIGSA ([20]; rate 63 g ai/ha): 10
phytotoxicity rating DIGSA ([20]; rate 500 g ai/ha): 40
phytotoxicity rating AMARE ([21]; rate 63 g ai/ha): 100
phytotoxicity rating AMARE ([21]; rate 500 g ai/ha): 100
phytotoxicity rating CASOB ([22]; rate 63 g ai/ha): 70
phytotoxicity rating CASOB ([22]; rate 500 g ai/ha): 100
phytotoxicity rating ABUTH ([23]; rate 63 g ai/ha): 100
phytotoxicity rating ABUTH ([23]; rate 500 g ai/ha): 100
crop damage rating CORN ([24]; rate 63 g ai/ha): 10
crop damage rating CORN ([24]; rate 500 g ai/ha): 25
crop damage rating RICE ([25]; rate 63 g ai/ha): 10
crop damage rating RICE ([25]; rate 500 g ai/ha): 60
crop damage rating SOY ([26]; rate 63 g ai/ha): 70
crop damage rating SOY ([26]; rate 500 g ai/ha): 90
